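48-hour exposure; five concentrations; linearly interpolated endpoints. At the GI50, growth is halved. TGI is the concentration that stops growth completely.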
Experiments:
Assay in all cases: growth of human tumour cells (NCI), 48 h
A498 renal = tested on: A498 renal
BT-549 breast = tested on: BT-549 breast
CCRF-CEM leukemia = tested on: CCRF-CEM leukemia
DU-145 prostate = tested on: DU-145 prostate
HCC-2998 colon = tested on: HCC-2998 colon
HCT-116 colon = tested on: HCT-116 colon
KM12 colon = tested on: KM12 colon
M14 melanoma = tested on: M14 melanoma
MDA-MB-435 = tested on: MDA-MB-435
SN12C renal = tested on: SN12C renal

Compound | TGI (A498 renal) [µM] | TGI (BT-549 breast) [µM] | TGI (CCRF-CEM leukemia) [µM] | TGI (DU-145 prostate) [µM] | TGI (HCC-2998 colon) [µM] | TGI (HCT-116 colon) [µM] | TGI (KM12 colon) [µM] | TGI (M14 melanoma) [µM] | TGI (MDA-MB-435) [µM] | TGI (SN12C renal) [µM] | GI50 (A498 renal) [µM] | GI50 (BT-549 breast) [µM] | GI50 (CCRF-CEM leukemia) [µM] | GI50 (DU-145 prostate) [µM] | GI50 (HCC-2998 colon) [µM] | GI50 (HCT-116 colon) [µM] | GI50 (KM12 colon) [µM] | GI50 (M14 melanoma) [nM] | GI50 (MDA-MB-435) [nM] | GI50 (SN12C renal) [µM]
CN(C)Cc1ccc(C(C)(C)C)cc1-c1cc(C(C)(C)C)ccc1CN(C)C | > 100 | > 100 | > 100 | > 100 | 30.2 | > 100 | > 100 | 41.6 | > 100 | > 100 |  |  |  |  |  |  |  |  |  | 
COc1ccc(Cn2cc3c(c2)-c2oncc2CC3)cc1OC | 0.678 | > 50 |  | 0.544 | 2.54 | 8.57 | 1.27 | 16 | 0.235 | > 50 | 0.102 | 0.344 | 0.132 | 0.163 | 0.172 | 0.193 | 0.18 | 154 | 77.4 | 0.331
COc1cccc(/C=C/c2ccnc3ccccc23)c1OC | > 10 | > 10 | > 10 | > 10 | > 10 | > 10 | > 10 | > 10 | > 10 | > 10 |  |  |  |  |  |  |  |  |  | 
C[C@@H](NC(=O)c1ncnc(N)c1Cl)c1ncc(C(=O)Nc2cc(C(F)(F)F)c(Cl)cn2)s1 | 24.7 | 81.2 | > 100 | > 82.7 | 40.7 | > 68.9 | > 84.6 | 13.6 | 34.3 | > 93.7 | 7.94 | 22.1 | 25.4 | 26.7 | 13.7 | 3.17 | 21.3 | 497 | 2270 | 19.9
COc1ccc(Cl)cc1Nc1nc(C(F)(F)F)ccc1C(=O)N/N=C/c1cccnc1 | > 100 | > 100 | > 100 | > 100 | > 100 | > 100 | > 100 | > 100 | > 100 | > 100 | 1.23 | 1.99 | 0.624 | 7.22 | 1.99 | 3.43 | 3.63 | 2420 | 5630 | 7.78
Cc1ccc(NC(=O)Nc2c(Cl)cccc2Cl)cn1 | > 100 | > 100 | > 100 | 76.6 | > 100 | > 100 | > 100 | > 100 | 4.69 | > 100 | 12.1 | 59.1 | 5.79 | 16.2 | 28 | 11.1 | 4.37 | 12000 | 1960 | 55.4
